According to patent publication US6355799B1, “Substituted benzene compounds, process for their preparation, and herbicidal and defoliant compositions containing them” (ISK Americas Incorporated, priority 1997, dated 2002):

Assays:
Assay type in all cases: in vivo
[1] = test system: field corn (Zea mays L., var. Dekalb 535, CORN); test: Post-emerge test, crop safety; conditions: post-emerge, 14 days after application, rating scale 0-100
Summary of the method: (§1)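 Sandy loam pots; pre-emerge: sown 1 d pre-spray, surface-watered after, then bottom-watered. Post-emerge: sown 8–21 d before, 2–3 leaf stage, + 0.25% v/v NIS, bottom-watered. Acetone, 187 l/ha track spray, 15–1000 g ai/ha. 0–100 injury score, day 14.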

[2] = test system: upland rice (Oryza sp., var. Tebonnet, RICE); test: Post-emerge test, crop safety; conditions: post-emerge, 14 days after application, rating scale 0-100
Summary of the method: as §1

[3] = test system: green foxtail (Setaria viridis, SETVI); test: Post-emerge test, greenhouse herbicide activity screening; conditions: post-emerge, 14 days after application, rating scale 0-100
Summary of the method: (§2)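 Visual ratings on a 0-100 scale (0 no damage, 100 all plants dead) were taken at 14 days after treatment. Rates of 15-1000 g ai/ha in acetone, 187 l/ha, were sprayed onto soil one day after planting (pre-emerge) or onto 2-3 leaf plants with 0.25% v/v surfactant (post-emerge).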

[4] = test system: common ragweed (Ambrosia artemisizfolia L., AMBEL); test: as above; conditions: post-emerge, 14 days after application, rating scale 0-100
Summary of the method: as §2

[5] = test system: lambsquarters (Chenopodium album, CHEAL); test: as above; conditions: post-emerge, 14 days after application, rating scale 0-100
Summary of the method: as §2

[6] = test system: redroot pigweed (Amaranthus retroflexus, AMARE); test: as above; conditions: post-emerge, 14 days after application, rating scale 0-100
Summary of the method: as §2

[7] = test system: sicklepod (Cassia obtusifolia, CASOB); test: as above; conditions: post-emerge, 14 days after application, rating scale 0-100
Summary of the method: as §2

[8] = test system: ivyleaf morningglory (Ipomoea hederacea, IPOHE); test: as above; conditions: post-emerge, 14 days after application, rating scale 0-100
Summary of the method: as §2

[9] = test system: velvetleaf (Abutilon theophrasti, ABUTH); test: as above; conditions: post-emerge, 14 days after application, rating scale 0-100
Summary of the method: as §2

[10] = test system: barnyardgrass (Echinochloa crus-galli, ECHCG); test: as above; conditions: post-emerge, 14 days after application, rating scale 0-100
Summary of the method: as §2

[11] = test system: large crabgrass (Digitaria sanguinalis, DIGSA); test: as above; conditions: post-emerge, 14 days after application, rating scale 0-100
Summary of the method: as §2

[12] = test system: johnsongrass (Sorghum halepense, SORHA); test: as above; conditions: post-emerge, 14 days after application, rating scale 0-100
Summary of the method: as §2

[13] = test system: green foxtail (Setaria viridis, SETVI); test: Pre-emerge test, greenhouse herbicide activity screening; conditions: rated 14 days after application, 0 = no damage, 100 = complete death
Summary of the method: as §1

[14] = test system: common ragweed (Ambrosia artemisizfolia L., AMBEL); test: as above; conditions: rated 14 days after application, 0 = no damage, 100 = complete death
Summary of the method: as §1

[15] = test system: lambsquarters (Chenopodium album, CHEAL); test: as above; conditions: rated 14 days after application, 0 = no damage, 100 = complete death
Summary of the method: as §1

[16] = test system: sicklepod (Cassia obtusifolia, CASOB); test: as above; conditions: rated 14 days after application, 0 = no damage, 100 = complete death
Summary of the method: as §1

[17] = test system: ivyleaf morningglory (Ipomoea hederacea, IPOHE); test: as above; conditions: rated 14 days after application, 0 = no damage, 100 = complete death
Summary of the method: as §1

[18] = test system: velvetleaf (Abutilon theophrasti, ABUTH); test: as above; conditions: rated 14 days after application, 0 = no damage, 100 = complete death
Summary of the method: as §1

[19] = test system: barnyardgrass (Echinochloa crus-galli, ECHCG); test: as above; conditions: rated 14 days after application, 0 = no damage, 100 = complete death
Summary of the method: as §1

[20] = test system: large crabgrass (Digitaria sanguinalis, DIGSA); test: as above; conditions: rated 14 days after application, 0 = no damage, 100 = complete death
Summary of the method: as §1

[21] = test system: johnsongrass (Sorghum halepense, SORHA); test: as above; conditions: rated 14 days after application, 0 = no damage, 100 = complete death
Summary of the method: as §1

[22] = test system: field corn (Zea mays L., var. Dekalb 535, CORN); test: Pre-emerge test, crop safety; conditions: rated 14 days after application, 0 = no damage, 100 = complete death
Summary of the method: (§3)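 Applied at 15–1000 g ai/ha from acetone in 187 l/ha spray volume. Post-emergence applications included 0.25% v/v non-ionic surfactant and reached plants sown 8–21 days before. Pre-emergence applications were incorporated by surface watering. Efficacy or crop damage was rated on a 0–100 scale after 14 days.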

[23] = test system: upland rice (Oryza sp., var. Tebonnet, RICE); test: Pre-emerge test, crop safety; conditions: rated 14 days after application, 0 = no damage, 100 = complete death
Summary of the method: as §3

[24] = test system: redroot pigweed (Amaranthus retroflexus, AMARE); test: Pre-emerge test, greenhouse herbicide activity screening; conditions: rated 14 days after application, 0 = no damage, 100 = complete death
Summary of the method: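 Compounds in acetone were track-sprayed at 187 l/ha, 15–1000 g ai/ha, onto sandy loam pots. Pre-emerge seeds were sown one day before spraying, with surface watering afterwards. Post-emerge plants were at the 2–3 leaf stage and sprayed with 0.25% v/v non-ionic surfactant. Injury was rated 0–100 at 14 days.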

COc1ccc(C(=O)Nc2c(OC)c(Cl)cc(F)c2-n2c(=O)cc(C(F)(F)F)n(C)c2=O)cc1 [2-63]
phytotoxicity rating CORN ([1]; 63 g ai/ha): 50 | phytotoxicity rating CORN ([1]; 250 g ai/ha): 95 | phytotoxicity rating RICE ([2]; 63 g ai/ha): 70 | phytotoxicity rating RICE ([2]; 250 g ai/ha): 95 | phytotoxicity rating SETVI ([3]; 63 g ai/ha): 50 | phytotoxicity rating SETVI ([3]; 250 g ai/ha): 95 | phytotoxicity rating AMBEL ([4]; 63 g ai/ha): 80 | phytotoxicity rating AMBEL ([4]; 250 g ai/ha): 100 | phytotoxicity rating CHEAL ([5]; 63 g ai/ha): 99 | phytotoxicity rating CHEAL ([5]; 250 g ai/ha): 100 | phytotoxicity rating AMARE ([6]; 63 g ai/ha): 100 | phytotoxicity rating AMARE ([6]; 250 g ai/ha): 100 | phytotoxicity rating CASOB ([7]; 63 g ai/ha): 100 | phytotoxicity rating CASOB ([7]; 250 g ai/ha): 100 | phytotoxicity rating IPOHE ([8]; 63 g ai/ha): 100 | phytotoxicity rating IPOHE ([8]; 250 g ai/ha): 100 | phytotoxicity rating ABUTH ([9]; 63 g ai/ha): 100 | phytotoxicity rating ABUTH ([9]; 250 g ai/ha): 100 | phytotoxicity rating ECHCG ([10]; 63 g ai/ha): 10 | phytotoxicity rating ECHCG ([10]; 250 g ai/ha): 100 | phytotoxicity rating DIGSA ([11]; 63 g ai/ha): 0 | phytotoxicity rating DIGSA ([11]; 250 g ai/ha): 70 | phytotoxicity rating SORHA ([12]; 63 g ai/ha): 20 | phytotoxicity rating SORHA ([12]; 250 g ai/ha): 100 | Pre-emerge Herbicidal Activity, phytotoxicity rating (0-100), SETVI ([13]; 63 g ai/ha): 100 | Pre-emerge Herbicidal Activity, phytotoxicity rating (0-100), SETVI ([13]; 250 g ai/ha): 100 | Pre-emerge Herbicidal Activity, phytotoxicity rating (0-100), AMBEL ([14]; 63 g ai/ha): 100 | Pre-emerge Herbicidal Activity, phytotoxicity rating (0-100), AMBEL ([14]; 250 g ai/ha): 100 | Pre-emerge Herbicidal Activity, phytotoxicity rating (0-100), CHEAL ([15]; 63 g ai/ha): 100 | Pre-emerge Herbicidal Activity, phytotoxicity rating (0-100), CHEAL ([15]; 250 g ai/ha): 100 | Pre-emerge Herbicidal Activity, phytotoxicity rating (0-100), CASOB ([16]; 63 g ai/ha): 100 | Pre-emerge Herbicidal Activity, phytotoxicity rating (0-100), CASOB ([16]; 250 g ai/ha): 100 | Pre-emerge Herbicidal Activity, phytotoxicity rating (0-100), IPOHE ([17]; 63 g ai/ha): 100 | Pre-emerge Herbicidal Activity, phytotoxicity rating (0-100), IPOHE ([17]; 250 g ai/ha): 100 | Pre-emerge Herbicidal Activity, phytotoxicity rating (0-100), ABUTH ([18]; 63 g ai/ha): 100 | Pre-emerge Herbicidal Activity, phytotoxicity rating (0-100), ABUTH ([18]; 250 g ai/ha): 100 | Pre-emerge Herbicidal Activity, phytotoxicity rating (0-100), ECHCG ([19]; 63 g ai/ha): 95 | Pre-emerge Herbicidal Activity, phytotoxicity rating (0-100), ECHCG ([19]; 250 g ai/ha): 100 | Pre-emerge Herbicidal Activity, phytotoxicity rating (0-100), DIGSA ([20]; 63 g ai/ha): 100 | Pre-emerge Herbicidal Activity, phytotoxicity rating (0-100), DIGSA ([20]; 250 g ai/ha): 100 | Pre-emerge Herbicidal Activity, phytotoxicity rating (0-100), SORHA ([21]; 63 g ai/ha): 90 | Pre-emerge Herbicidal Activity, phytotoxicity rating (0-100), SORHA ([21]; 250 g ai/ha): 100 | Pre-emerge phytotoxicity rating (0-100), crop damage, CORN ([22]; 63 g ai/ha): 60 | Pre-emerge phytotoxicity rating (0-100), crop damage, CORN ([22]; 250 g ai/ha): 100 | Pre-emerge phytotoxicity rating (0-100), crop damage, RICE ([23]; 63 g ai/ha): 95 | Pre-emerge phytotoxicity rating (0-100), crop damage, RICE ([23]; 250 g ai/ha): 100 | Pre-emerge Herbicidal Activity, phytotoxicity rating (0-100), AMARE ([24]; 63 g ai/ha): 100 | Pre-emerge Herbicidal Activity, phytotoxicity rating (0-100), AMARE ([24]; 250 g ai/ha): 100
